Experimental data published in publication PMC4281103 (Journal of Medicinal Chemistry, 2014).

Key:
male Sprague–Dawley rats [1] = details: rat, in vivo; cited from earlier work
human κ-opioid receptor = human κ-opioid receptor (Homo sapiens, UniProt P41145); format: cell-based
human μ-opioid receptor = human μ-opioid receptor (Homo sapiens, UniProt P35372); assay: Inhibition of forskolin-induced cAMP accumulation in MOR-CHO cells; format: cell-based; details: selectivity for KOR
male Sprague–Dawley rats [2] = assay: Rat reinstatement assay: cocaine-prime-induced reinstatement of drug seeking; format: in vivo; details: for inactive lever pressing during self-administration, extinction and reinstatement: 2 1.0 mg/kg, 24 1.0 mg/kg, 36 0.3 mg/kg; for dose required to significantly reduce active lever responses: ip, cocaine-prime-induced reinstatement, rat
male Sprague–Dawley rats [3] = assay: Rat spontaneous locomotor activity; format: in vivo; details: acute ip; 2 1.0 mg/kg, 24 1.0 mg/kg, 36 0.3 mg/kg; total ambulatory counts over 60 min

human μ-opioid receptor, sequence (P35372 whole entry): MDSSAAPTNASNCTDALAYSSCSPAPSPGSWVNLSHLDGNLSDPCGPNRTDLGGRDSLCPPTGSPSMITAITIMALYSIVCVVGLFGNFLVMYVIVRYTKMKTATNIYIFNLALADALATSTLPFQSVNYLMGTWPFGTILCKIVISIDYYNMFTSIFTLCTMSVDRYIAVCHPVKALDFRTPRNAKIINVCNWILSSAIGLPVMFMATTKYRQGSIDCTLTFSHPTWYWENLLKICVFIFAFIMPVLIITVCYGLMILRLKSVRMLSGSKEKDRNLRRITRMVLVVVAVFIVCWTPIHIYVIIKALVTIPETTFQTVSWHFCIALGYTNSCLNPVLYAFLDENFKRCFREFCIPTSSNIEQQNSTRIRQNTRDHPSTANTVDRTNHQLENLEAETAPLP
human κ-opioid receptor, sequence (P41145 whole entry): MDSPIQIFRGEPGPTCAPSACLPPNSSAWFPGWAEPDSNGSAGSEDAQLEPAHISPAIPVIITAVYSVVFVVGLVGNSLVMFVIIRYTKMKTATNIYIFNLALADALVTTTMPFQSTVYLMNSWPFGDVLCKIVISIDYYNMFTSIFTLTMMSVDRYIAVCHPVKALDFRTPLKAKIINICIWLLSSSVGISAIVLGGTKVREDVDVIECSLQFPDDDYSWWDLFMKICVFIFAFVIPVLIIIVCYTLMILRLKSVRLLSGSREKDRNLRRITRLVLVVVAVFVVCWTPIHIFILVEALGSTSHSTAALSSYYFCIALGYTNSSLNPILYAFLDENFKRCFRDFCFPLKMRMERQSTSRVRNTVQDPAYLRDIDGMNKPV

Row | Structure (SMILES) | activity at the MOR (human μ-opioid receptor) | inactive lever pressing during self-administration, extinction and reinstatement (male Sprague–Dawley rats [2]) | dose required to significantly reduce active lever responses (male Sprague–Dawley rats [2]) [mg/kg] | effect on spontaneous locomotor activity vs vehicle-treated animals (male Sprague–Dawley rats [3]) | further results
1 | COC(=O)[C@@H]1C[C@H](OC(C)=O)C(=O)[C@H]2[C@@]1(C)CC[C@H]1C(=O)O[C@H](c3ccoc3)C[C@]21C [Compound 1, Salvinorin A] |  |  |  |  | effect on drug-seeking behavior and spontaneous locomotor activity (male Sprague–Dawley rats [1]): reduces drug-seeking behavior at a dose that does not affect spontaneous locomotor activity
2 | COC(=O)[C@@H]1C[C@H](OC(C)=O)C(=O)[C@H]2[C@@]1(C)CC[C@H]1C(=O)O[C@H](c3ccoc3C#N)C[C@]21C [Compound 50, (2S,4aR,6aR,7R,9S,10aS,10bR)-Methyl 9-Acetoxy-2-(2-cyanofuran-3-yl)-6a,10b-dimethyl-4,10-dioxododecahydro-1H-benzo[f]isochromene-7-carboxylate] |  |  |  |  | times less potent than 36 (KOR) (human κ-opioid receptor): more than 500 times
3 | C#Cc1occc1[C@@H]1C[C@]2(C)[C@H]3C(=O)[C@@H](OC(C)=O)C[C@@H](C(=O)OC)[C@]3(C)CC[C@H]2C(=O)O1 [Compound 36] | no activity at the MOR | no significant changes | 0.1 | no significant difference | 
4 | COC(=O)[C@@H]1C[C@H](OC(C)=O)C(=O)[C@H]2[C@@]1(C)CC[C@H]1C(=O)O[C@H](c3ccoc3C)C[C@]21C [Compound 24] | no activity at the MOR | no significant changes |  | no significant difference | 
5 | COC(=O)[C@@H]1C[C@H](OC(C)=O)C(=O)[C@H]2[C@@]1(C)CC[C@H]1C(=O)O[C@H](c3ccoc3Br)C[C@]21C [Compound 2] | no activity at the MOR | no significant changes | 0.3 | no significant difference | 
6 | COC(=O)[C@@H]1C[C@H](OC(C)=O)C(=O)[C@H]2[C@@]1(C)CC[C@H]1C(=O)O[C@H](c3ccoc3C=O)C[C@]21C [Compound 49, (2S,4aR,6aR,7R,9S,10aS,10bR)-Methyl 9-Acetoxy-2-(2-formylfuran-3-yl)-6a,10b-dimethyl-4,10-dioxododecahydro-1H-benzo[f]isochromene-7-carboxylate] |  |  |  |  | times less potent than 29 (KOR) (human κ-opioid receptor): approximately 7 times
